These results are taken from US20220160656A1, “INTRANASALLY ADMINISTERED ANTIHISTAMINES AND USES THEREOF” (DBBH, LLC, priority 2019, published 2022).

The subject of data set [1] is rhinovirus colds. The conditions noted are these: intranasal administration in a phosphate buffer vehicle, patients; cited from earlier work.
A short description of data set [2]: in vitro. The settings on record: pH 7.4.
A short description of data set [3]: in vitro. The conditions noted are these: human; for recovery at 120 min: pH 7.4; for Papp at 120 min: apical dosing.
Protocol: (§1) EpiAirway tissues, plated in 24-well plates, and accompanying culture medium and assay buffer solutions, were purchased from MatTek Corporation (Ashland, Mass.). According to the EpiAirway AIR-100 Use Protocol provided by MatTek, the tissues were returned to culture immediately upon receipt. In a tissue culture hood, using sterile technique, 1.0 mL of cold medium (AIR-100-ASY) was dispensed into each well of the 6-well plate (n=3) and one tissue insert was transferred to each of the wells. The apical surface of the tissue was exposed to the air (no medium was added to the insert). The tissues were equilibrated overnight at 37° C. in a 5% CO2 incubator. The culture medium was then replaced with fresh, pre-warmed medium until use.
(§2) The unidirectional permeation experiment was conducted according to protocol 18APCIP2 and relevant SOPs of Absorption Systems. Prior to the permeability assay, the culture medium in the plate was aspirated; and ˜1 mL of Dulbecco's phosphate-buffered saline (DPBS) was added to the well to remove any remaining residue of culture medium from the underside of the insert. The tissues were transferred to a 24-well plate with DPBS (750 μL) in each well as receiver, and dosing solution (400 μL) was added to each insert. A 100 μL aliquot was immediately removed as the 0-minute donor sample. Receiver samples (200 μL) were collected at 30, 60, and 120 minutes, replaced with an equal volume of fresh pre-warmed blank buffer at 30 and 60 minutes. The donor side was sampled (100 μL) at 0 and 120 minutes. The assay plate was placed in a humidified CO2 incubator at 37° C. during the assay period.
(§3) After 120 minutes, the tissues were rinsed with DPBS and gently dried with tissue wipes after aspiration of the assay buffer. The insert membranes with tissues attached were carefully removed from the insert apparatus, placed in a tared centrifuge tube, and weighed.
(§4) The apparent permeability coefficient (Papp) and recovery were calculated as follows:
Papp=(dCr/dt)×Vr/(A×Cini) (1)
(§5) Recovery (%)=[((Cr,final×Vr)+(Cd,final×Vd))/(Cini×Vd)]×100 (2)
(§6) Recovery (%)=[((Cr,final×Vr)+(Cd,final×Vd)+(Tissue Accumulation))/(Cini×Vd)]×100 (3)
(§7) where, • dCr/dt is the slope of cumulative receiver concentration vs. time in μM s^−1; • Vr is the volume of the receiver compartment; • Vd is the volume of the donor compartment; • A is the diffusional area of the membrane; • Cini is the donor concentration at 0 minutes in μM; • CD,final is the donor concentration at 120 minutes in μM; • Cr,final is the receiver concentration at 120 minutes in μM.
(§8) With DPBS, pH 7.4 used on both the donor and receiver sides, permeability was initiated with addition of 0.4 mL of dosing solution into the inserts and of 0.75 mL of blank buffer into the wells of the assay plate. The assay was performed for 120 minutes in a humidified incubator at 37° C.
Data set [4] concerns EpiAirway tissues. The settings on record: EpiAirway tissues after 120 minutes.
Protocol: as §1, §2, §3, §4
Papp=(dCr/dt)×Vr/(A×Cini) (1)
as §5, §6, §7, §8

The structures appear in SMILES notation.

In the case of `CN(C)CCOC(c1ccccc1)c1ccccc1` [Diphenhydramine], the “therapeutic effect in reducing signs and symptoms of rhinovirus colds” value in data set [1] is reported as “no therapeutic effect”. In data set [2], this compound had a recovery at 120 min, 100 μM of 86.3%. Moreover, in data set [3], the recovery at 120 min worked out at 103%. Moreover, in data set [4], the “Tissue Accumulation Average ± SD” value is recorded as 0.212 ± 0.0222 nmol/mg. Besides, the “Tissue Accumulation R1” value in data set [4] (replicate R1) is recorded as 0.188 nmol/mg. Besides, the “Tissue Accumulation R3” value in data set [4] (replicate R3) was determined as 0.218 nmol/mg.
In data set [3], `Cn1c(=O)c2c(ncn2C)n(C)c1=O` [Caffeine] came in with a recovery at 120 min of 96.9%. The Papp (in general, the rate of passage across a membrane or cell layer, normalised by area and donor concentration) at 120 min in data set [3] (pH 7.4, Papp Average ± SD, EpiAirway tissues, DPBS pH 7.4, diphenhydramine 100 μM, atenolol 100 μM, caffeine 50 μM co-dosed) amounted to 29.1 ×10⁻⁶ cm/s; in data set [3] (pH 7.4, Papp R1, EpiAirway tissues, DPBS pH 7.4, 120 minutes, 37° C., replicate R1) it was 30.9 ×10⁻⁶ cm/s; in data set [3] (pH 7.4, Papp R2, EpiAirway tissues, DPBS pH 7.4, replicate R2) it was 28.2 ×10⁻⁶ cm/s; in data set [3] (pH 7.4, Papp R3, EpiAirway tissues, DPBS pH 7.4, replicate R3) it was 28.2 ×10⁻⁶ cm/s.
Consider `CC(C)NCC(O)COc1ccc(CC(N)=O)cc1` (stereo not drawn) [Atenolol], for which the recovery at 120 min in data set [3] is 98.5%.
